The numbers were not newly measured in patent US11331258B2, “Method for dyeing keratinous material, comprising the use of an organosilicon compound, an oligoalkylsiloxane and a dyeing compound” (Henkel AG & Co. KGaA, priority 2019, dated 2022), which cites them from elsewhere.

SMILES strings stand for the structures. Where two headings read alike, the source gives them in different places.

For the molecule `CCN(Cc1cccc(S(=O)(=O)[O-])c1)c1ccc(C(=C2C=CC(=[N+](CC)Cc3cccc(S(=O)(=O)[O-])c3)C=C2)c2ccccc2S(=O)(=O)[O-])cc1.[Na+].[Na+]` [Acid Blue 9], the solubility in water entry (25° C.) is on record as “more than 20 % by weight”.

Turning to `O=S(=O)([O-])c1ccc(N=Nc2c(O)ccc3ccccc23)cc1.[Na+]` [Acid Orange 7, sodium salt of 4-[(2-hydroxy-1-naphthyl)azo]benzene sulphonate], the solubility in water result (25° C.) is “more than 7 g/L”. Turning to `Nc1cc(S(=O)(=O)[O-])cc2cc(S(=O)(=O)[O-])c(N=Nc3ccccc3)c(O)c12.[Na+].[Na+]` [Acid Red 33, diantrium salt of 5-amino-4-hydroxy-3-(phenylazo)-naphthalene-2,7-disulphonate], where the note is “25° C.”, the solubility in water result is on record as “about 2.5 g/L”.

Regarding `O=C([O-])C1=NN(c2ccc(S(=O)(=O)[O-])cc2)C(=O)C1N=Nc1ccc(S(=O)(=O)[O-])cc1.[Na+].[Na+].[Na+]` (stereo not shown) [Acid Yellow 23, trisodium salt of 4,5-dihydro-5-oxo-1-(4-sulfophenyl)-4-((4-sulfophenyl)azo)-1H-pyrazole-3-carboxylic acid], the solubility in water result (at about 25° C.) was “highly soluble”.
